Experimental data taken from publication PMC11093748, “De novo identification of CD4^+ T cell epitopes” (Nature Methods, 2024).

Experiments:
[1] = test system: 5-4-E8 TCR; test: Single SABR-II co-incubation, NFAT-GFP Jurkat; type: cell-based, mouse; conditions: I-Ad SABR-II; 18-20 h
Source text: (§1) We have previously described SABRs, which are chimeric receptors containing an extracellular pMHC complex attached to an intracellular CD28-CD3ζ signaling domain. […] We sought to expand this platform to allow antigen discovery for MHC/HLA-II with seamless integration with class I alleles. Here, we created SABRs to present epitopes in MHC-II alleles, by covalently linking the epitope to the β-chain of MHC-II that is attached to the CD28-CD3ζ signaling domains downstream, along with a 2A peptide-linked MHC-II α-chain (Fig. 1a,b). To test whether SABR-IIs could present epitopes to TCRs and induce a signal, we expressed them using lentiviral vectors in NFAT–GFP Jurkat cells, which express green fluorescent protein (GFP) upon NFAT activation and translocation downstream of CD3ζ activation (a kind gift from Y. Chen and A. Weiss). We constructed murine SABR-IIs presenting epitopes in I-Ab, I-Ad and I-Ag7 (Ova, […][41]; ATEG, […][42]; and 2.5mimo, […][43], respectively). We co-incubated the SABR-II-expressing NFAT–GFP Jurkat cells with a separate population of Jurkat cells expressing either the BDC2.5 TCR (recognizes I-Ag7-2.5mimo), OT-II TCR (recognizes I-Ab-Ova), 5-4-E8 TCR (recognizes I-Ad-ATEG) or no TCR. […]

[2] = test system: OT-II TCR; test: Single SABR-II co-incubation, NFAT-GFP Jurkat; type: cell-based, mouse; conditions: I-Ab SABR-II; 18-20 h
Source text: as §1

Row | Sequence | GFP and CD69 expression in SABR-II-expressing NFAT-GFP Jurkat cells (in words) [1] | GFP and CD69 expression in SABR-II-expressing NFAT-GFP Jurkat cells (in words) [2]
1 | ATEGRVRVNSAYQDK | Robust GFP and CD69 expression | –
2 | ISQAVHAAHAEINEAGR [Ova] | – | Robust GFP and CD69 expression
